Earlier results in US4672107A, “Cell growth inhibitor and method” (Inbex, Inc., priority 1985, dated 1987).

Tested on: human embryonic palatal mesenchymal cells
Details: Yoneda and Pratt, Science 1981

## Epidermal Growth Factor (NSDSECPLSHDGYCLHDGVCMYIEALDKYACNCVVGYIGERCQYRDLKWWELR; Epidermal growth factor; UniProt P01133 971-1023, looked up) [Epidermal Growth Factor (EGF)]
  stimulation of incorporation of 3[H]-thymidine into newly synthesized DNA: a little more than twofold
